Laboratory results reported in publication PMC7397269, “Synthesis and Evaluation of New Coumarin Derivatives as Antioxidant, Antimicrobial, and Anti-Inflammatory Agents” (Molecules, 2020).
Converted amounts (≈) assume the structure as drawn. Where two headings read alike, the source gives them in different places.

Experiments:
[1] = test system: Candida albicans NRRL Y-477; experiment: Agar well diffusion, C. albicans; type: cell-based; details: NRRLY477, 100 μL of 10 mg/mL in DMSO, read-out: diameter of inhibition zone, CA
From the text: (§1) The new molecules were individually tested for their antimicrobial activity in vitro against standard bacteria strains from the American Type Culture Collection (ATCC), namely, Staphylococcus aureus ATCC 29213, Bacillus subtilis ATCC 6633, Bacillus megaterium ATCC 9885 (Gram-positive), Escherichia coli ATCC 2592, and Pseudomonas aeruginosa ATCC 27,953 (Gram-negative). The compounds were also microbiologically tested against locally isolated Saccharomyces cerevisiae (yeast) and the standard Agricultural Research Service Culture Collection (NRRL) strain of the yeast-like pathogenic fungus Candida albicans NRRL Y-477. Primary screening was conducted using the agar well diffusion method using nutrient agar (NA) medium and Sabourand dextrose agar (SDA) medium for the tested pathological bacteria and yeast, respectively. […].
(§2) Antimicrobial tests were conducted via the agar well diffusion method using 100 μL of suspension containing 1 × 10^8 CFU/mL pathological tested bacteria and 1 × 10^6 CFU/mL yeast spread on NA and SDA, respectively. After the media cooled and solidified, wells (10 mm in diameter) were made in the solidified agar and loaded with 100 μL of the tested compound solution prepared by dissolving 10 mg of the chemical compound in 1 mL dimethyl sulfoxide (DMSO). The inoculated plates were then incubated for 24 h at 37 °C for bacteria and yeast growth. DMSO served as negative control. Ciprofloxacin (10 mg/mL) and ketoconazole (10 mg/mL) were used as standards for antibacterial and antifungal activity, respectively. After incubation, antimicrobial activity was evaluated by measuring the zone of inhibition against the test organisms and compared with that of the standard. Antimicrobial activities were expressed as the diameter of the inhibition zone (IZ) in mm. The experiment was carried out in triplicate and the average zone of inhibition was calculated.

[2] = test system: Bacillus megaterium ATCC 9885; experiment: Agar well diffusion, B. megaterium; type: cell-based; details: Priestia megaterium, ATCC9885, 100 μL of 10 mg/mL in DMSO, read-out: diameter of inhibition zone, BM
From the text: as §1, §2

[3] = test system: Bacillus subtilis ATCC 6633; experiment: MIC, two-fold serial dilution, B. subtilis; type: cell-based; details: ATCC6633, read-out: Minimum inhibitory concentration, BS
From the text: as §1
(§3) The bacteriostatic activity of the active compounds (having IZ > 16 mm) was then evaluated using the two-fold serial dilution technique. Two-fold serial dilutions of the tested compounds solutions were prepared using the proper nutrient broth to reach final concentrations of 1000, 500, 250, and 125 μg/mL. The tubes were then inoculated with the test microorganisms grown in their suitable broth at 37 °C for 24 h (1 × 10^8 CFU/mL for bacteria and 1 × 10^6 CFU/mL of yeast), 0.1 mL of the above inoculum was administered per 5 mL, and the tubes were incubated at 37 °C for 24 h. The lowest concentration showing no growth was taken as the MIC.

trypsin = experiment: Proteinase-inhibitory activity; type: biochemical; details: 250 µg/mL; mean ± SD (n = 3)
Procedure: The newly synthesised compounds were individually tested for their in vitro anti-inflammatory activity against proteinase enzyme. […] This test was performed at the Pharmacology Department, Medical Research Division, National Research Centre, Cairo, Egypt. Furthermore, compounds 2–8 were evaluated for their COX1/COX2 inhibitory activities.
The test was performed according to El-Serwy et al. with minor modifications. The reaction mixture (2 mL) contained 0.06 mg trypsin, 20 mM Tris HCl buffer (pH 7.4), and 1 mL test sample (250 µg/mL for each compound). After incubating for 5 min, 1 mL of 0.8% (w/v) casein was added. The mixture was incubated for an additional 20 min. The reaction was arrested by adding 1 mL of 10% perchloric acid. The cloudy suspension was centrifuged, and the absorbance of the supernatant was read at 280 nm. Reference standard aspirin was used as the positive control. The experiment was performed in triplicate. The percent inhibition of protein denaturation was calculated using the following Equation (2):(2) % Inhibition=100−A control −A test/A control×100 where Acontrol and Atest represent the absorbance of the control reaction without and with the sample, respectively.

[4] = test system: Saccharomyces cerevisiae local isolate; experiment: Agar well diffusion, S. cerevisiae; type: cell-based; details: read-out: diameter of inhibition zone, SC
From the text: as §1, §2

[5] = test system: Escherichia coli ATCC 2592; experiment: Agar well diffusion, E. coli; type: cell-based; details: ATCC2592, 100 μL of 10 mg/mL in DMSO, read-out: diameter of inhibition zone, EC
From the text: as §1, §2

[6] = DPPH antioxidant assay (radical scavenging); type: biochemical; details: mean ± SD (n = 3)
Procedure: The antioxidant effects of the synthesised compounds were assessed using the 2,2-diphenyl-1-picrylhydrazyl (DPPH) antioxidant assay. Table 1 summarises the antioxidant effects of the test samples and ascorbic acid except for compound 5b because it was produced in poor yield.
The radical scavenging activity of the synthesised compounds was measured using the DPPH microplate-based method. The absorbance was measured using a microplate/cuvette reader (Spectramax M5, Molecular Devices, San Jose, CA, USA). Reference standard ascorbic acid was utilised as the positive control for this assay. Test samples were prepared at a starting concentration of 200 μg/mL after mixing with 100 μL of 0.2 mM DPPH methanolic solution. […] Samples were incubated with DPPH in the dark for 30 min at room temperature (25 °C). The methanolic DPPH solution was prepared daily and stored in a flask covered with aluminium foil. DPPH radicals have an absorption maximum (λmax) at 515 nm, at which the absorbance values were measured and converted into a percentage of antioxidant activity.
The methanolic DPPH solution without antioxidants was used as a control, and samples in methanol alone served as a background control. IC50 was determined using GraphPad Prism 7 (GraphPad Software Inc., San Diego, CA, USA). The percent inhibition was calculated using the following Equation (1):(1) % Inhibition=100−Sample Absorbance −Sample background Absorbance/DPPH only Absorbance×100
The assay was carried out in triplicate and performed as much as possible in an area protected against light. The data points are presented as the mean ± standard deviation (SD, n = 3).

[7] = test system: Bacillus megaterium ATCC 9885; experiment: MIC, two-fold serial dilution, B. megaterium; type: cell-based; details: Priestia megaterium, ATCC9885, read-out: Minimum inhibitory concentration, BM
From the text: as §1, §3

[8] = test system: Staphylococcus aureus ATCC 29213; experiment: Agar well diffusion, S. aureus; type: cell-based; details: ATCC29213, 100 μL of 10 mg/mL in DMSO, read-out: diameter of inhibition zone, SA
From the text: as §1, §2

[9] = test system: Bacillus subtilis ATCC 6633; experiment: Agar well diffusion, B. subtilis; type: cell-based; details: ATCC6633, 100 μL of 10 mg/mL in DMSO, read-out: diameter of inhibition zone, BS
From the text: as §1, §2

[10] = test system: Pseudomonas aeruginosa ATCC 27,953; experiment: Agar well diffusion, P. aeruginosa; type: cell-based; details: ATCC27, 100 μL of 10 mg/mL in DMSO, read-out: diameter of inhibition zone, PA
From the text: as §1, §2

[11] = test system: Pseudomonas aeruginosa ATCC 27,953; experiment: MIC, two-fold serial dilution, P. aeruginosa; type: cell-based; details: ATCC27, read-out: Minimum inhibitory concentration, PA
From the text: as §1, §3

[12] = test system: Escherichia coli ATCC 2592; experiment: MIC, two-fold serial dilution, E. coli; type: cell-based; details: ATCC2592, read-out: Minimum inhibitory concentration, EC
From the text: as §1, §3

[13] = test system: Staphylococcus aureus ATCC 29213; experiment: MIC, two-fold serial dilution, S. aureus; type: cell-based; details: ATCC29213, read-out: Minimum inhibitory concentration, SA
From the text: as §1, §3

COX-1 = biological target: T1, COX-1 (Homo sapiens, UniProt P23219); experiment: COX-1 inhibition, Cayman assay kit; type: biochemical; details: mean of two determinations
T1 construct: purchased Cayman Chemical 701070
T1 sequence (P23219 24-599): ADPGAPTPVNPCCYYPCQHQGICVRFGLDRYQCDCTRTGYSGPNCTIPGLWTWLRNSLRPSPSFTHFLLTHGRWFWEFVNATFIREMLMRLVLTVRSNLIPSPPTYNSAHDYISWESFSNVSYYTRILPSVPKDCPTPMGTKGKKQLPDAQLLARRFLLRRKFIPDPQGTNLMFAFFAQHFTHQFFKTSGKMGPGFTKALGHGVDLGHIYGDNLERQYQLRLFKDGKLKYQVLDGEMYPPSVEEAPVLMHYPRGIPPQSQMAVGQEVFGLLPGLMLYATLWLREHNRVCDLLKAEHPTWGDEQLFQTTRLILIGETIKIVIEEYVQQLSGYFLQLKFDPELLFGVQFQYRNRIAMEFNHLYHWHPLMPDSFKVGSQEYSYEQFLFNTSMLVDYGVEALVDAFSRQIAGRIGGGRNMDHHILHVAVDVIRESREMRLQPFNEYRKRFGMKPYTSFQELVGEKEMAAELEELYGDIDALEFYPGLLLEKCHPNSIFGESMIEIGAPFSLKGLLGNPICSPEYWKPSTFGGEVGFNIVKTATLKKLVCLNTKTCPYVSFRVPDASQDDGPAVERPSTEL

COX-2 = biological target: T2, COX-2 (Homo sapiens, UniProt P35354); experiment: COX-2 inhibition, Cayman assay kit; type: biochemical; details: for IC50: mean of two determinations; for SI, selectivity index (COX-1/COX-2): ratio of COX-1/COX-2 IC50
T2 construct: purchased Cayman Chemical 701080
T2 sequence (P35354 18-604): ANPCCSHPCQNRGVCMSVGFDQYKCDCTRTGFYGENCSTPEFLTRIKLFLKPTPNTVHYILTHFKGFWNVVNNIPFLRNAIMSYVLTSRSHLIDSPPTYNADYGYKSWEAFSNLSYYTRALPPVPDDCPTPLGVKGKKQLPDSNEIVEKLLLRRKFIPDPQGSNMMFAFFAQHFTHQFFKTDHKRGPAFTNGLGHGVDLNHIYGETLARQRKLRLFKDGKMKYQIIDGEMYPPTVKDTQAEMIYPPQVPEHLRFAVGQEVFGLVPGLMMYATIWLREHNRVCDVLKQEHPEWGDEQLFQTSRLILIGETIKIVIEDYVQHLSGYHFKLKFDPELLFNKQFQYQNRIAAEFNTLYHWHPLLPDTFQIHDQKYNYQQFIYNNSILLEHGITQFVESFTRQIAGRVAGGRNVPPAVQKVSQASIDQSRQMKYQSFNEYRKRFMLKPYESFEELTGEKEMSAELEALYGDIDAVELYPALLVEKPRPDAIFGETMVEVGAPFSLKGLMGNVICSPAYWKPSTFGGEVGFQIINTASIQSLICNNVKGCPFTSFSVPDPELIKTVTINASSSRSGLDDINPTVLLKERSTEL

[14] = test system: Saccharomyces cerevisiae local isolate; experiment: MIC, two-fold serial dilution, S. cerevisiae; type: cell-based; details: read-out: Minimum inhibitory concentration, SC
From the text: as §1, §3

[15] = test system: Candida albicans NRRL Y-477; experiment: MIC, two-fold serial dilution, C. albicans; type: cell-based; details: NRRLY477, read-out: Minimum inhibitory concentration, CA
From the text: as §1, §3

[16] = well diffusion, 100 μL of 10 mg/mL in DMSO, S. cerevisiae

| MIC [3] [µg/mL] | MIC [7] [µg/mL] | SMILES | zone of inhibition at 10000 µg/mL [1] [mm] | melting point [°C] | zone of inhibition at 10000 µg/mL [2] [mm] | % Inhibition (proteinase) (trypsin) [%] | zone of inhibition at 10000 µg/mL [4, 16] [mm] | zone of inhibition at 10000 µg/mL [5] [mm] | IC50 [6] | zone of inhibition at 10000 µg/mL [8] [mm] | zone of inhibition at 10000 µg/mL [9] [mm] | zone of inhibition at 10000 µg/mL [10] [mm] | MIC [13] [µg/mL] | IC50 (COX-1) [µM] | IC50 (COX-2) [µM] | SI, selectivity index (COX-1/COX-2) (COX-2) | zone of inhibition at 10000 µg/mL [4] [mm] | MIC [14] [µg/mL] | MIC [15] [µg/mL] | further results |
| --- | --- | --- | --- | --- | --- | --- | --- | --- | --- | --- | --- | --- | --- | --- | --- | --- | --- | --- | --- | --- |
| 1000 (≈ 1900 µM) | 1000 (≈ 1900 µM) | O=C(/C=C/c1ccc([N+](=O)[O-])cc1)c1ccc(NS(=O)(=O)c2c(O)c3cc(Cl)ccc3oc2=O)cc1 [9a, (E)-6-Chloro-4-hydroxy-N-(4-(3-(4-nitrophenyl)acryloyl)phenyl)-2-oxo-2H-chromene-3-sulfonamide] | < 15 | 205 to 207 | 18 | 62.14 ± 4.87 | < 15 | < 15 | — ((—): inactive (IC50 > 200 μg/mL)) | 16 | 18 | < 15 | – | – | – | – | – | – | – | – |
| 125 (≈ 377 µM) | 125 (≈ 377 µM) | O=C(O)c1cn(C2CC2)c2cc(N3CCNCC3)c(F)cc2c1=O [Ciprofloxacin, reference compound] | < 15 | – | 30 | – | < 15 | 30 | – | 28 | 30 | 30 | 125 (≈ 377 µM) | – | – | – | – | – | – | MIC [11]: 125 µg/mL (≈ 377 µM); MIC [12]: 125 µg/mL (≈ 377 µM) |
| – | – | Cc1ccc2oc(=O)c3c(c2c1)OC(/N=C/c1ccc(Cl)cc1Cl)=C(C#N)C3c1ccc([N+](=O)[O-])cc1 (racemic) [5e, (±)-2-((2,4-dichlorobenzylidene)amino)-9-methyl-4-(4-nitrophenyl)-5-oxo-4H,5H-pyrano[3,2-c]chromene-3-carbonitrile] | 20 | 236 to 238 | 16 | 45.78 ± 1.62 | – | 15 | — ((—): inactive (IC50 > 200 μg/mL)) | 16 | 16 | 15 | – | 20.8 | 8.27 | 2.52 | 22 | 500 (≈ 939 µM) | 500 (≈ 939 µM) | – |
| – | – | COc1cc(/C=N/C2=C(C#N)C(c3ccco3)c3c(c4cc(C)ccc4oc3=O)O2)cc(OC)c1OC (racemic) [5d, (±)-4-(furan-2-yl)-9-methyl-5-oxo-2-((3,4,5-trimethoxybenzylidene)amino)-4H,5H-pyrano[3,2-c]chromene-3-carbonitrile] | 19 | 248 to 250 | < 15 | 43.4 ± 1.52 | – | < 15 | 82.92 ± 3.300 µg/mL (≈ 166 µM) | 18 | < 15 | < 15 | 1000 (≈ 2010 µM) | 27.2 | 16 | 1.7 | 19 | 1000 (≈ 2010 µM) | 1000 (≈ 2010 µM) | – |
| – | – | Cc1ccc2oc(=O)c3c(c2c1)OC(N)=C(C(N)=O)C3c1ccco1 (racemic) [3b, (±)-2-Amino-4-(furan-2-yl)-9-methyl-5-oxo-4H,5H-pyrano[3,2-c]chromene-3-carboxamide] | 18 | 202 to 204 | < 15 | 49.28 ± 10.93 | – | 16 | 48.38 ± 4.616 µg/mL (≈ 143 µM) | 16 | < 15 | 16 | – | 7.73 | 2.45 | 3.16 | 17 | 1000 (≈ 2960 µM) | 1000 (≈ 2960 µM) | – |
